According to US11752156B2, “Compositions and methods for treating hyperproliferative skin disorders” (Athenex HK Innovative Limited, priority 2018, dated 2023):
Where “and” joins values, the source holds several entries; their conditions need not be identical. Identical values can stand only once. Like-named read-outs stand apart in the source and are kept apart here.

How the values were obtained:
[1] = tested on: squamous cell human carcinoma cell line (SCC A431); test: MTT cell proliferation assay, 72 hours, dark or blue light, squamous cell carcinoma; format: cell-based; conditions: for inhibition at 0.005 µM / inhibition at 0.02 µM / inhibition at 0.08 µM / inhibition at 0.32 µM / inhibition at 1.28 µM / inhibition at 0.04 µM / inhibition at 0.01 µM: Homo sapiens, read-out: growth inhibition relative to untreated control
Procedure: The effects of combined treatment with KX01, a vitamin D derivative, and/or blue/UV light exposure were characterized using a cell proliferation assay. Cell proliferation was assessed by using an MTT assay. Cells were seeded in 96-well plate (3,000-5,000 cells per well) and treated with test compounds at varying concentrations (e.g. KX01: 5 to 80 nM; calcipotriol 5 to 1,280 nM) for 72 hours, either in the dark or exposed to blue light irradiation (for 2, 4, or 6 hours). To each well, 10 μl of 3-(4,5-dimethylthiazol-2-yl)-2,5-diphenyltetrazolium bromide (MTT) (RPI Corporation™) solution (5 mg/ml in PBS) was added and incubated at 37° C. for 3 hours. Next, 100 μl of 20% SDS was added to each well. After overnight incubation at 37° C., the absorbance in each well was measured at 570 nm in a microplate reader (Molecular Devices™). The cell growth curve and GI50s were calculate using GraphPad Prism™ 5 software. Similar studies were performed using a squamous cell carcinoma cell line (SCC A431). Tables 19 and 20 show the results of cell growth inhibition studies (expressed as a percentage relative to control cell growth) for treatment with either KX01 or calcipotriol in combination with exposure to blue light. […] The percentage of growth inhibition relative to untreated control is shown. Tables 21 to 24 show the effects of combined treatment with KX01, calcipotriol, and exposure to blue light at 0 hours, 2 hours, 4 hours, and 6 hours of light exposure (respectively) on human squamous cell carcinoma cells. Values are expressed as the percentage of growth inhibition relative to cells grown under control conditions (0 hours blue light, [KX01]=0, [calcipotriol]=0). The percentage of growth inhibition relative to an untreated control is shown. […] Results are shown below in Tables 31 and 32, which show results for KX01 and calcipotriol (respectively). Values are expressed as the percentage of growth inhibition relative to cells grown under control conditions (0 hours blue light, [KX01]=0, [calcipotriol]=0). […] Results are shown below in Tables 33 to Table 36, which show results from 0, 2, 4, and 6 hours of blue light exposure (respectively). Values are expressed as the percentage of growth inhibition relative to cells grown under control conditions (0 hours blue light, [KX01]=0, [calcipotriol]=0).

[2] = tested on: human keratinocyte cell line; test: inhibition of human keratinocyte growth, individual dose response, 72 hours, MTT assay; format: cell-based; conditions: 72 hour exposure
Procedure: FIG. 4: Inhibition of human keratinocyte growth versus KX01 concentration (treatment duration: 72 hours; cell growth measured using the MTT assay). […] FIG. 5: Inhibition of human keratinocyte growth versus calcipotriol concentration (treatment duration: 72 hours; cell growth measured using the MTT assay). […] A human keratinocyte cell line was used in these studies.

C=C1/C(=C\C=C2/CCC[C@]3(C)[C@@H]([C@H](C)/C=C/[C@@H](O)C4CC4)CC[C@@H]23)C[C@@H](O)C[C@@H]1O [Calcipotriol, calcipotriol]
inhibition at 0.005 µM ([1]; A-431, 0 h, calcipotriol 5 nM, blue light 0 h): 19% | inhibition at 0.02 µM ([1]; A-431, 0 h, calcipotriol 20 nM, blue light 0 h): 30% | inhibition at 0.08 µM ([1]; A-431, 0 h, calcipotriol 80 nM, blue light 0 h): 40% | inhibition at 0.32 µM ([1]; A-431, 0 h, calcipotriol 320 nM, blue light 0 h): 41% | inhibition at 1.28 µM ([1]; A-431, 0 h, calcipotriol 1,280 nM, blue light 0 h): 36% | inhibition at 0.005 µM ([1]; A-431, 2 h, calcipotriol 5 nM, blue light 2 h): 26% | inhibition at 0.02 µM ([1]; A-431, 2 h, calcipotriol 20 nM, blue light 2 h): 36% | inhibition at 0.08 µM ([1]; A-431, 2 h, calcipotriol 80 nM, blue light 2 h): 41% | inhibition at 0.32 µM ([1]; A-431, 2 h, calcipotriol 320 nM, blue light 2 h): 35% | inhibition at 1.28 µM ([1]; A-431, 2 h, calcipotriol 1,280 nM, blue light 2 h): 38% | inhibition at 0.005 µM ([1]; A-431, 4 h, calcipotriol 5 nM, blue light 4 h): 49% | inhibition at 0.02 µM ([1]; A-431, 4 h, calcipotriol 20 nM, blue light 4 h): 44% | inhibition at 0.08 µM ([1]; A-431, 4 h, calcipotriol 80 nM, blue light 4 h): 47% | inhibition at 0.32 µM ([1]; A-431, 4 h, calcipotriol 320 nM, blue light 4 h): 49% | inhibition at 1.28 µM ([1]; A-431, 4 h, calcipotriol 1,280 nM, blue light 4 h): 43% | inhibition at 0.005 µM ([1]; A-431, 6 h, calcipotriol 5 nM, blue light 6 h): 67% | inhibition at 0.02 µM ([1]; A-431, 6 h, calcipotriol 20 nM, blue light 6 h): 69% | inhibition at 0.08 µM ([1]; A-431, 6 h, calcipotriol 80 nM, blue light 6 h): 67% | inhibition at 0.32 µM ([1]; A-431, 6 h, calcipotriol 320 nM, blue light 6 h): 67% | inhibition at 1.28 µM ([1]; A-431, 6 h, calcipotriol 1,280 nM, blue light 6 h): 68% | growth inhibition relative to untreated control ([1]; calcipotriol 5 nM, blue light 0 h): 14% | growth inhibition relative to untreated control ([1]; calcipotriol 5 nM, blue light 2 h): 27% | growth inhibition relative to untreated control ([1]; calcipotriol 5 nM, blue light 4 h): 50% | growth inhibition relative to untreated control ([1]; calcipotriol 5 nM, blue light 6 h): 62% | growth inhibition relative to untreated control ([1]; calcipotriol 20 nM, blue light 2 h): 39% | growth inhibition relative to untreated control ([1]; calcipotriol 20 nM, blue light 4 h): 48% | growth inhibition relative to untreated control ([1]; calcipotriol 20 nM, blue light 6 h): 63% | growth inhibition relative to untreated control ([1]; calcipotriol 80 nM, blue light 0 h): 27% | growth inhibition relative to untreated control ([1]; calcipotriol 80 nM, blue light 4 h): 50% | growth inhibition relative to untreated control ([1]; calcipotriol 80 nM, blue light 6 h): 61% | growth inhibition relative to untreated control ([1]; calcipotriol 320 nM, blue light 0 h): 31% | growth inhibition relative to untreated control ([1]; calcipotriol 320 nM, blue light 2 h): 37% | growth inhibition relative to untreated control ([1]; calcipotriol 320 nM, blue light 4 h): 51% | growth inhibition relative to untreated control ([1]; calcipotriol 320 nM, blue light 6 h): 60% | growth inhibition relative to untreated control ([1]; calcipotriol 1,280 nM, blue light 0 h): 28% | growth inhibition relative to untreated control ([1]; calcipotriol 1,280 nM, blue light 2 h): 39% | growth inhibition relative to untreated control ([1]; calcipotriol 1,280 nM, blue light 4 h): 48% | growth inhibition relative to untreated control ([1]; calcipotriol 1,280 nM, blue light 6 h): 58% and 57% | IC50 [2]: 0.0955 µM

O=C(Cc1ccc(-c2ccc(OCCN3CCOCC3)cc2)cn1)NCc1ccccc1 [KX01, N-benzyl-2-(5-{4-[2-(morpholine-4-yl)ethoxy]phenyl}pyridine-2-yl)acetamide]
inhibition at 0.02 µM ([1]; A-431, 0 h, KX01 20 nM, blue light 0 h): 99% | inhibition at 0.04 µM ([1]; A-431, 0 h, KX01 40 nM, blue light 0 h): 99% | inhibition at 0.08 µM ([1]; A-431, 0 h, KX01 80 nM, blue light 0 h): 99% | inhibition at 0.01 µM ([1]; A-431, 2 h, KX01 10 nM, blue light 2 h): 40% | inhibition at 0.02 µM ([1]; A-431, 2 h, KX01 20 nM, blue light 2 h): 97% | inhibition at 0.04 µM ([1]; A-431, 2 h, KX01 40 nM, blue light 2 h): 97% | inhibition at 0.08 µM ([1]; A-431, 2 h, KX01 80 nM, blue light 2 h): 95% | inhibition at 0.01 µM ([1]; A-431, 4 h, KX01 10 nM, blue light 4 h): 66% | inhibition at 0.02 µM ([1]; A-431, 4 h, KX01 20 nM, blue light 4 h): 76% | inhibition at 0.04 µM ([1]; A-431, 4 h, KX01 40 nM, blue light 4 h): 73% | inhibition at 0.08 µM ([1]; A-431, 4 h, KX01 80 nM, blue light 4 h): 75% | inhibition at 0.01 µM ([1]; A-431, 6 h, KX01 10 nM, blue light 6 h): 79% | inhibition at 0.02 µM ([1]; A-431, 6 h, KX01 20 nM, blue light 6 h): 81% | inhibition at 0.04 µM ([1]; A-431, 6 h, KX01 40 nM, blue light 6 h): 81% | inhibition at 0.08 µM ([1]; A-431, 6 h, KX01 80 nM, blue light 6 h): 82% | growth inhibition relative to untreated control ([1]; KX01 10 nM, blue light 0 h): 0% and 11% | growth inhibition relative to untreated control ([1]; KX01 10 nM, blue light 2 h): 44% | growth inhibition relative to untreated control ([1]; KX01 10 nM, blue light 6 h): 77% | growth inhibition relative to untreated control ([1]; KX01 20 nM, blue light 0 h): 80% | growth inhibition relative to untreated control ([1]; KX01 20 nM, blue light 2 h): 83% | growth inhibition relative to untreated control ([1]; KX01 20 nM, blue light 4 h): 69% and 74% | growth inhibition relative to untreated control ([1]; KX01 20 nM, blue light 6 h): 83% | growth inhibition relative to untreated control ([1]; KX01 40 nM, blue light 0 h): 100% | growth inhibition relative to untreated control ([1]; KX01 40 nM, blue light 4 h): 80% | growth inhibition relative to untreated control ([1]; KX01 40 nM, blue light 6 h): 86% | growth inhibition relative to untreated control ([1]; KX01 80 nM, blue light 2 h): 98% | growth inhibition relative to untreated control ([1]; KX01 80 nM, blue light 4 h): 84% | growth inhibition relative to untreated control ([1]; KX01 80 nM, blue light 6 h): 88% | effect of blue light exposure with the drug on cell growth inhibition ([1]; for example at 10 nM KX01): Synergistic effects | IC50 [2]: 0.0419 µM
